# Results reported in patent EP4541351A1, “COMPOUNDS AND COMBINATION AS STIMULATORS OF COLLAGEN SYNTHESIS” (Center for Intelligent Research in Crystal Engineering, S.L., priority 2023, dated 2025).
# What was measured:
# [1] = system: Immortalized Human Gingival Fibroblasts-hTERT (iHGF); assay: Total collagen deposition (Sirius red staining) after UVA irradiation; format: cell-based; details: 7 days after irradiation and treatment
# Experimental: Collagen deposition was determined according to Walsh et al 1992. […] Collagen was stained with Sirius red F3BA 0.1% in saturated picric acid for 1 hour. Unbound dye was removed by washing with 10 mM HCl, and dye was solubilized with 100 mM NaOH. Absorbance was measured with a microplate reader at 540 nm. Non-treated cells were set as 100%.
# [2] = system: Immortalized Human Gingival Fibroblasts-hTERT (iHGF); assay: Metabolic activity (PrestoBlue cell viability) after UVA irradiation; details: 24 h after irradiation and after 7 days of culture and treatment
# Experimental: Immortalized Human Gingival Fibroblasts-hTERT (iHGF) (Applied Biological Materials Inc) were used for the experiments. Cells were grown at 37 °C in an atmosphere of 5% CO2 using complete fibroblast cell culture medium that consists in Dulbecco's modified Eagle's medium (DMEM) low glucose (Biowest)/Ham's F12 (3/1) (Biowest), supplemented with 10% (v/v) fetal bovine serum embryonic stem cells tested (FBS) (Biowest), 100 g/mL penicillin and 100 g/mL streptomycin (Biowest).
# iHGF were seeded (7 000 cells/well) in 96-well plates (white and transparent tissue culture test-plates) and at confluence, cells were treated with different concentrations (0.1; 1; 10; 50; 75 and 100 µM) of Pteroyouth®, pterostilbene or silybin in complete fibroblast cell culture medium as described above. […] To measure cell viability, cell culture media and treatments were added again to the cells and metabolic activity was measured 24 h after irradiation. […] Cell viability was determined again at day 7, and cell monolayer was used to quantify collagen deposition. […]
# Total metabolic activity was evaluated using the PrestoBlue™ Cell Viability Reagent (Invitrogen, Catalog Number A13261; Life Technologies, Carlsbad, CA, USA), which is used to measure the metabolic activity of cells, being an indicator of their overall health and functionality. […]
Compound,total collagen deposition compared to both C and CuVA ([1]; 1 µM),metabolic activity (cell viability) ([2]; 0.1 µM),metabolic activity (cell viability) ([2]; 1 µM),total collagen deposition compared to both C and CuVA ([1]; 0.1 µM),total collagen deposition compared to both C and CuVA ([1]; 10 µM)
"COc1cc(/C=C/c2ccc(O)cc2)cc(OC)c1 [pterostilbene, trans-3,5-dimethoxy-4-hydroxystilbene]",higher collagen deposition,maintain cell viability,maintain cell viability,,
COc1cc(C2Oc3cc([C@H]4Oc5cc(O)cc(O)c5C(=O)[C@@H]4O)ccc3OC2CO)ccc1O (stereo partly drawn) [silybin],higher collagen deposition,,,higher collagen deposition,higher collagen deposition
